Data taken from patent EP4810497A1, “ISOQUINOLINE DERIVATIVE, SYNTHESIS METHOD THEREFOR, AND USE THEREOF” (Harbin Gloria Pharmaceuticals Co., Ltd., priority 2023, dated 2025).
Like-named read-outs stand apart in the source and are kept apart here.

Key:
db/db mice [1] = assay: Hypoglycemic effect in diabetic model mice, intraperitoneal injection; type: in vivo; details: 4 hours later
Procedure: Gene knockout db/db mice are a classic model of hyperglycemia and obesity. Under normal feeding conditions, mice aged 3 months or older developed hyperglycemia and obesity. After the mice were provided with only drinking water (fasted) for 6 hours, blood was collected from the tail of the mice to measure blood glucose values. Subsequently, different drugs, including saline (control), liraglutide at 0.6 mg/Kg, low-concentration T6 (T6 low, 0.1 mg/Kg), and high-concentration T6 (T6 high, 0.5 mg/Kg), were injected intraperitoneally. 4 hours later, blood was collected from the tail of the mice to measure the blood glucose levels. Each group consisted of 6 mice. Blood glucose levels before administration (Vbefore) and after administration (Vafter) were obtained for each mouse. The effect of the drug on blood glucose (%) was calculated as follows: (Vbefore−Vafter) × 100/Vbefore . [formula]

Pgk1 [2] = biological target: T1, Pgk1 (Homo sapiens, UniProt P00558); assay: Affinity for Pgk1 protein (Biacore T200 chip); type: binding; details: for Rmax: amount of drug bound to the target protein when the affinity was detected
T1 sequence (P00558 1-417): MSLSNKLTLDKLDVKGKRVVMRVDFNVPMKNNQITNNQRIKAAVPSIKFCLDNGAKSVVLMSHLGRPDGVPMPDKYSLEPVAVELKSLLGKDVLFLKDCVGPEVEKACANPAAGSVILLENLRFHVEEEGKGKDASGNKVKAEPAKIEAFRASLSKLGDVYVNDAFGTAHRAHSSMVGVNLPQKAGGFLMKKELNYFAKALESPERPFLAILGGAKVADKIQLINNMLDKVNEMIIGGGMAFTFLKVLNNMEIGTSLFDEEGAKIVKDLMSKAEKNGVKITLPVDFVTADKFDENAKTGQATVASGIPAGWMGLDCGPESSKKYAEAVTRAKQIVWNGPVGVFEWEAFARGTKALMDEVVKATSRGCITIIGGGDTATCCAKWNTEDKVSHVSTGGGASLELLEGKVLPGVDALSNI
Procedure: Purified Pgk1 protein (with a concentration of 1 mg/mL) was immobilized on a Biacore T200 chip. […] The obtained curves can calculate parameters such as affinity and Rmax.

SK-N-SH cells = assay: Cellular ATP levels (Promega ATP assay kit); type: cell-based, human; details: for activity in increasing cellular ATP: SK-N-SH cells, 10 µM, 5% O2, untreated control defined as 1 (FIG. 1); for activity in increasing cellular ATP / optimal dose (cellular ATP levels): 48 hours; for cell growth: 50 µM; for optimal dose (cellular ATP levels): doses of 5 µM, 10 µM and 50 µM
Procedure: Human Neuroblastoma Cell Line (SK-N-SH) is a human-derived neuroblastoma cell line. SK-N-SH cells were seeded in a 6-well plate at a density of 6×10^4 cells per well. The cells were cultured for 12 hours under 5% O2. Various drugs at a concentration of 10 µM were added. After 48 hours, the cells were harvested. Celluar ATP levels were measured using the Promega ATP assay kit. The experiment was repeated 6 times to 10 times. The experimental results were illustrated in FIG. 1. […] T1 to T11 were the experimental groups.
SK-N-SH cells were seeded in a 6-well plate at a density of 6×10^4 per well. Cells were cultured for 12 hours under 5% O2, and the drug was added. Cells were harvested after 48 hours. Cellular ATP levels were measured using a Promega ATP assay kit. The experiment was repeated 5 times to 7 times.

db/db mice [3] = assay: Long-term hypoglycemic and weight-loss effects in diabetic model mice, drinking water; type: in vivo; details: 7 days, T6 1.5 mg/kg
Procedure: After 7 days of treatment, changes in glycated hemoglobin (HbA1c) level, insulin level in mouse blood, and body weight, were measured.

[4] = test system: stable Pgk1-knockdown SK-N-SH cell line; assay: Mitochondrial respiration (Seahorse) in Pgk1-knockdown cells; type: cell-based, human; details: 10 µM, shPgk1 knockdown cells
Procedure: Cellular mitochondrial stress was detected using a Seahorse XFe analyzer (XFe-24, Seahorse Bioscience, Billerica, MA, UAS) to measure the oxygen consumption rate (OCR). SH-SKN cell lines were seeded in a 24-well plate compatible with the Seahorse XFe analyzer. After 24 hours, cells were treated with DMSO (0.01%) or various drugs (10 µM). Cellular mitochondrial stress was detected 12 hours after drug treatment. For the mitochondrial stress test, 97.2 mL of Seahorse basal medium (Seahorse Bioscience, Billerica, MA, UAS) was taken and heated in a water bath to 37°C, and 1 mL of a stock solution was added. The stock solution was prepared by mixing the following solutions: 1 mL of 200 mM L-glutamine solution (Sigma), 1 mL of 100 mM pyruvate solution (Sigma), and 800 µL of 2.5 M glucose solution, and the pH of the stock solution was adjusted to 7.4 with 1 M NaOH solution. Before detection, the probe plate was taken out, and 1 mL of XF Carlibrant solution (Seahorse Bioscience) was added to the probe plate. The plate was then incubated overnight in a CO2-free constant temperature incubator at 37°C. After drug treatment, the cells were removed and washed twice with preheated Seahorse basal medium at 37°C, ensuring that 500 µL of Seahorse basal medium remained in each well. The cells were incubated in a CO2-free constant temperature incubator at 37°C for 1 hour. […]

Pgk1 [5] = biological target: T1, Pgk1; assay: In vitro biochemical Pgk1 enzymatic activity (NADH production, absorbance 339 nm); design: made in house; host or cells: E. coli BL21(DE3); details: for optimal concentration for activating Pgk1: purified Pgk1-His 2 µg/mL, 10 minutes at room temperature
Procedure: Human Pgk1 cDNA was cloned into the pEASYTM-E2 vector (TransGen Biotech) containing a His tag. Protein expression was induced in BL21(DE3) chemocompetent cells (TransGen Biotech) with 0.5 mM IPTG. After lysing cells in extraction buffer (20 mM sodium phosphate, 500 mM NaCl, 5 mM imidazole, 5% glycerol, protease inhibitor cocktail, pH 7.9), the supernatant was purified with nickel beads (AdarBiotech). The His-tagged Pgk1 was eluted with the elution buffer (20 mM sodium phosphate, 500 mM NaCl, 80 mM imidazole, protease inhibitor cocktail, pH 7.9). The activity of Pgk1 can be measured by monitoring the rate of NADH production, as NADH accumulated as the reaction proceeded. Purified Pgkl-His protein (2 µg/mL) was added to the reaction buffer (20 mM Tris, 100 mM NaCl, 2 mM DTT, 0.1 mM MgSO4, 10 mM NaHPO4, pH 8.6), and the substrates (1.6 mM GAP, 1 mM β-NAD, 1 mM ADP, 20 ng/µL GAPDH) was added. […] After reaction for 10 minutes at room temperature, the absorbance wavelength at 339 nm was measured using a microplate reader (Molecular Devices, SpectraMax i3x), and this wavelength corresponds to NADH levels.

Pgk1 [6] = biological target: T1, Pgk1; details: cited from earlier work
α1 adrenergic receptor = details: cited from earlier work
[7] = test system: MPTP-induced Parkinson's disease model mice; assay: Rotarod motor ability in MPTP-induced Parkinson's disease model; type: in vivo; details: day 7 after MPTP injection
Procedure: (§1) Male mice aged 3 months were used and fed normally. The acute MPTP modeling method (see Sonsalla PK, Heikkila RE. The influence of dose and dosing interval on MPTP-induced dopaminergic neurotoxicity in mice. Eur J Pharmacol 1986; 129(3): 339-45.) was employed. MPTP was injected intraperitoneally four times in total at a dose of 20 mg/kg body weight per injection, with a 2-hour interval between each injection. MPTP was dissolved in normal saline, and the control group received an equal dose of normal saline. T2 was dissolved in DMSO and diluted with normal saline to the desired concentration. Accordingly, equal doses of DMSO and normal saline were administered during the treatment. On the day of MPTP model establishment, mice were administered either T2 (treatment group) or DMSO (control group). Subsequently, mice in all groups were administered the corresponding drugs daily. Mouse behavior was tested using a rotarod (E103, UGO BASILE). First, mice were pre-trained for two consecutive days at a constant speed of 15 revolutions per minute (15 rpm) until they could stay on the rod for more than 60 seconds. […] The latency to fall from the rotarod was recorded, and the behavior was monitored by a camera. […] Therefore, whether dopaminergic neurons were damaged can be determined by Western blot assay using an anti-TH antibody.

[8] = test system: Tyrosine hydroxylase (TH); assay: Striatal tyrosine hydroxylase Western blot in MPTP-induced Parkinson's disease model; type: in vivo, mice; details: 0.1 mg/Kg, striatal tissue
Procedure: as §1

Wild-type mice (C57BL/6) = assay: Blood glucose in normal mice in vivo; details: 0.1 mg/kg intraperitoneally, fasted 6 hours after administration
Procedure: Wild-type mice (C57BL/6) aged 3 months to 4 months under normal feeding conditions were intraperitoneally injected with different drugs at 0.1 mg/kg. Mice injected with normal saline served as the control group. Mice were fasted for 6 hours after administration. Blood was collected from the tail of each mouse to measure blood glucose levels. Each group consisted of 9 mice.

[9] = Pgk1 immobilized on Biacore T200 chip, read-out: Affinity

**Q.** For liraglutide, which “hypoglycemic effect (blood glucose)” value (db/db mice [1]; 0.6 mg/Kg intraperitoneally) is on record?
**A.** optimal hypoglycemic effect

**Q.** For `Nc1nc(N2CCN(C(=O)[C@H]3CCCO3)CC2)cc2cc3c(cc12)OCO3` [Compound T1], which Kd (Pgk1 [2]; [9]) is on record?
**A.** 496 µM

**Q.** With `CC1(C)Oc2cc3cc(N4CCN(C(=O)[C@H]5CCCO5)CC4)nc(N)c3cc2O1` [Compound T4] as the molecule, how does the Kd (Pgk1 [2]; [9]) read?
**A.** 725 µM

**Q.** What about the Rmax (Pgk1 [2]) of the same molecule?
**A.** 75 RU

**Q.** For `Nc1nc(N2CCN(C(=O)[C@H]3CCCO3)CC2)cc2cc3c(cc12)OCCO3` [Compound T10], which “activity in increasing cellular ATP” value (SK-N-SH cells) is on record?
**A.** no such activity of increasing cellular ATP

**Q.** And the Kd (Pgk1 [2]; [9])?
**A.** > 1000 µM

**Q.** And the Rmax (Pgk1 [2])?
**A.** None

**Q.** What does the source list for `Nc1ncnc2c1ncn2[C@@H]1O[C@H](COP(=O)(O)OP(=O)(O)O)[C@@H](O)[C@H]1O` [ADP, reference compound]?
**A.** Rmax (Pgk1 [2]): 35 RU; Kd (Pgk1 [2]; unit inferred, read-out: KD value): 337 µM

**Q.** For `Nc1nc(N2CCN(C(=O)[C@H]3CCCN3)CC2)cc2cc3c(cc12)OCO3` [Compound T8], which Kd (Pgk1 [2]; [9]) is on record?
**A.** 473 µM

**Q.** What about the Rmax (Pgk1 [2]) of the same molecule?
**A.** 87 RU

**Q.** For `Nc1nc(N2CCN(C(=O)[C@H]3CCCO3)CC2)cc2cc3c(cc12)OCC3` [Compound T6], which cell growth (SK-N-SH cells) is on record?
**A.** tendency to inhibit cell growth

**Q.** And the “optimal dose (cellular ATP levels)” value (SK-N-SH cells)?
**A.** 50 µM

**Q.** What about the “hypoglycemic effect (blood glucose)” value (db/db mice [1]; high concentration 0.5 mg/kg intraperitoneally) of the same molecule?
**A.** significant hypoglycemic effects

**Q.** What about the “hypoglycemic effect (blood glucose)” value (db/db mice [1]; low concentration 0.1 mg/kg intraperitoneally) of the same molecule?
**A.** significant hypoglycemic effects

**Q.** And the Kd (Pgk1 [2]; [9])?
**A.** 375 µM

**Q.** And the body weight (db/db mice [3])?
**A.** significant decrease in body weight

**Q.** What about the “glycated hemoglobin (HbA1c) level” value (db/db mice [3]; terazosin 0.3 mg/kg, metformin 350 mg/kg, versus control group) of the same molecule?
**A.** decrease

**Q.** And the basal respiratory rate [4]?
**A.** absent

**Q.** And the maximum respiratory rate [4]?
**A.** absent

**Q.** And the “inhibition of Pgk1 enzymatic activity” value (Pgk1 [5]; all different concentrations tested)?
**A.** none of the concentrations can inhibit Pgk1

**Q.** And the “optimal concentration for activating Pgk1” value (Pgk1 [5])?
**A.** 0.1 µM

**Q.** Which results are given for `Nc1nc(N2CCN(C(=O)[C@H]3CCCO3)CC2)cc2cc3c(cc12)CCO3` [Compound T5]?
**A.** Kd (Pgk1 [2]; [9]): 273 µM; Rmax (Pgk1 [2]): 86 RU

**Q.** For `Nc1nc(N2CCN(C(=O)c3ccco3)CC2)cc2cc3c(cc12)OCO3` [Compound T11], which “activity in increasing cellular ATP” value (SK-N-SH cells) is on record?
**A.** no such activity of increasing cellular ATP

**Q.** And the Kd (Pgk1 [2]; [9])?
**A.** > 1000 µM

**Q.** And the Rmax (Pgk1 [2])?
**A.** None

**Q.** For `COc1cc2cc(N3CCN(C(=O)C4CCCO4)CC3)nc(N)c2cc1OC` (centres unmarked) [TZ-md], which “effect of activating Pgk1” value (Pgk1 [6]) is on record?
**A.** still retains the effect of activating Pgk1

**Q.** What about the “inhibition of the α1 adrenergic receptor” value (α1 adrenergic receptor) of the same molecule?
**A.** does not inhibit the α1 adrenergic receptor

**Q.** With `COc1cc2nc(N3CCN(C(=O)C4CCCO4)CC3)nc(N)c2cc1OC` (centres unmarked) [Terazosin, terazosin, reference compound] as the molecule, how does the cell growth (SK-N-SH cells) read?
**A.** tendency to inhibit cell growth

**Q.** And the “optimal dose (cellular ATP levels)” value (SK-N-SH cells)?
**A.** 10 µM

**Q.** What about the “motor ability (rotarod)” value ([7]; 0.1 mg/Kg daily) of the same molecule?
**A.** improved the motor ability

**Q.** What about the “tyrosine hydroxylase protein levels / effect on dopaminergic neurons” value [8] of the same molecule?
**A.** protective effect on dopaminergic neurons

**Q.** What about the “inhibition of Pgk1 enzymatic activity” value (Pgk1 [5]; high concentration, 100 µM) of the same molecule?
**A.** can inhibit Pgk1 enzymatic activity

**Q.** And the “optimal concentration for activating Pgk1” value (Pgk1 [5])?
**A.** 1 µM

**Q.** And the “hypoglycemic effect (blood glucose)” value (Wild-type mice (C57BL/6))?
**A.** did not exhibit a hypoglycemic effect

**Q.** Which Kd (Pgk1 [2]; [9]) does the source give for `CC1Oc2cc3cc(N4CCN(C(=O)[C@H]5CCCO5)CC4)nc(N)c3cc2O1` (some centres unmarked) [Compound T3] here?
**A.** 684 µM

**Q.** What about the Rmax (Pgk1 [2]) of the same molecule?
**A.** 93 RU

**Q.** Which “motor ability (rotarod)” value ([7]; three doses 0.1 mg/Kg, 0.3 mg/Kg and 1 mg/Kg daily) does the source give for `Nc1nc(N2CCN(C(=O)[C@@H]3CCCO3)CC2)cc2cc3c(cc12)OCO3` [Compound T2] here?
**A.** exerted protective effects

**Q.** What about the Kd (Pgk1 [2]; [9]) of the same molecule?
**A.** 449 µM

**Q.** What about the “tyrosine hydroxylase protein levels / effect on dopaminergic neurons” value [8] of the same molecule?
**A.** protective effect on dopaminergic neurons

**Q.** Which Kd (Pgk1 [2]; [9]) does the source give for `Nc1nc(N2CCN(C(=O)[C@@H]3CCCN3)CC2)cc2cc3c(cc12)OCO3` [Compound T9] here?
**A.** 811 µM

**Q.** What about the Rmax (Pgk1 [2]) of the same molecule?
**A.** 87 RU

**Q.** With `Nc1nc(N2CCN(C(=O)C3CCCC3)CC2)cc2cc3c(cc12)OCO3` [Compound T7] as the molecule, how does the Kd (Pgk1 [2]; [9]) read?
**A.** 878 µM
